Laboratory results from US12642776B2, “Anticoccidial composition comprising stilbene-based compound, and use thereof” (CJ CHEILJEDANG CORPORATION, priority 2020, dated 2026).
Marks after values point to notes of the source that are not given here.

What was measured:
[1] = system: Eimeria tenella protozoan (sporozoite); assay: Direct killing effect against Eimeria tenella protozoan (sporozoite), microscopic count of alive sporozoites; settings: for concentration showing death rate of 50% or more against the protozoan: tested 16 to 500 ppm
Description: In the present example, protozoan (sporozoite) direct killing ability evaluation was conducted against 1 representative Eimeria kind known to be infected in most farms (E. tenella).
A certain amount of oocysts of each coccidial protozoan was put in a tube containing glass beads and pulverized, and then to remove the crushed oocyst cell wall and other debris, internal sporocysts were purified using the percoll density gradient, and washed with PBS solution. A reagent comprising sodium taurocholic acid (Sigma aldrich, USA) and trypsin (Gibco, USA), respectively, was treated to sporocysts of Eimeria tenella for excystation of the internal sporozoites, and they were incubated, and then they were washed with PBS solution once and the protozoa were obtained.
After reacting the pterostilbene, pinostilbene and anticoccidial agents, diclazuril and gallic acid (hereinafter, material) with the protozoan of Eimeria tenella at various concentrations of 16 to 500 ppm, respectively, only alive protozoa (sporozoites) were counted through microscopic observation.

Eimeria tenella = assay: In vivo anticoccidial efficacy evaluation in broilers challenge-inoculated with Eimeria tenella; design: species or system Ross broilers; key to ACI: ACI out of 200 points; higher = better; ≥160 very excellent; Lesion index / Oocyst index: scale not given here; settings: for Survival rate after challenge inoculation (%): Eimeria tenella-infected broilers, 10,000 oocysts oral, up to 8th day after challenge; for Survival rate after challenge inoculation (%) / BWG after challenge inoculation (g/d) / ACI / Lesion score / Oocyst index / Lesion index / Daily weight gain compared to negative control group (RWG, %): feed with salinomycin 60 ppm, resveratrol 125 ppm or pterostilbene 125 ppm; for BWG after challenge inoculation (g/d) / anticoccidial index: Eimeria tenella-infected broilers; for BWG after challenge inoculation (g/d): before challenge to 7th day after; for anticoccidial index: Table 5; for ACI: anticoccidial index by Equation 2, out of 200 points; for Lesion score: appendix lesion, scale 0-4, 8th day after challenge; for anticoccidial efficacy compared with salinomycin: comparison of anticoccidial index with salinomycin treatment group; for Oocyst index: index from oocyst excretion (%) compared to infected negative control group; for Lesion index: lesion score x 10; for Daily weight gain compared to negative control group (RWG, %): relative to non-infected negative control group
Description: An in vivo anticoccidial efficacy evaluation test was performed in an animal experiment facility in Gyeongsangnam-do, South Korea. One-day-old female Ross broilers were individually weighed and randomly divided into groups to use in an experiment. Matters and conditions for experimental design were described in Table 2.
A breeding farm was managed according to the Korean poultry breeding management guidelines. Cages and the breeding farm were cleaned and disinfected before starting the test. The temperature of […] and the humidity of 40 to 50% of the breeding farm were maintained, and it was continuously monitored. General feed was fed according to the nutritional requirements of broilers, and the mixing ratio was described in Table 3.
To the general feed (Table 3), each material (salinomycin (CAS No. 53003-10-4), resveratrol (sigma) or pterostilbene (sigma) was added at a concentration described in Table 4 below, respectively, and was self-mixed.
Antibiotics and supplements were not used in general feed and mixed feed, and no anticoccidial agent other than each material was added. Broilers were fed ad libitum throughout the experiment period. After putting 6 1-day-age broilers in cages randomly placed for each of the control group or test group and breeding, general feed was fed for 14 days, and then the mixed feed prepared above was ingested by dividing by control group or test group.
Coccidiosis induction was performed by oral inoculation (challenge inoculation) in an oral tube type of 10,000 oocysts (eggs) with over 90% mature (sporulation) Eimeria tenella per one individual to 21-day-old broilers.
The anticoccidial efficacy by test group designed in Example 1-2 above was shown as an anticoccidial index (ACI), and the anticoccidial index was calculated by Equation 2 below. The ACI score is out of 200 points, and the higher the ACI score, the more excellent the anticoccidial ability, and when it is 120 points or more to less than 140 points, it is determined that it is effective as an anticoccidial material, and when it is 140 points or more to less than 160 points, it is determined that it is excellent as an anticoccidial material, and when it is 160 points or more, it is determined that the anticoccidial effect is very excellent (Luis Miguel De Pablos et al., Anticoccidial activity of maslinic acid against infection with Eimeria tenella in chickens, Parasitol Res, 2010). Anticoccidial index(ACI)=(survival rate after challenge inoculation (%))+(daily weight gain compared to negative control group(RWG, %))−(lesion score×10)−(fecal oocyst excretion amount index) (Equation 2)
1) Survival rate: the number of dead individuals was recorded daily, and post mortem autopsy was performed to determine a cause of mortality, and the number of individuals who died due to causes other than coccidiosis was excluded. The survival rate (%) up to the 8th day after challenge inoculation was used for anticoccidial index calculation. The measured survival rate was described in Table 5 below.
2) Daily weight gain: body weight was measured for each cage before challenge inoculation with a protozoan into an individual and at the 7th day after challenge inoculation, and the difference was divided by the number of days to calculate the daily weight gain (ADG, g/d). ‘Daily weight gain compared to the negative control group (RWG, %)’ which was calculated by dividing the daily weight gain (ADG, average daily gain; g/d) of each experimental group by the weight gain (ADG, g/d) of the non-infected negative control group and multiplying by 100 was used for anticoccidial index calculation. The daily weight gain (ADG, g/d) measured in each control group and test group and the daily weight gain compared to the negative control group (RWG, %) were shown in Table 5 below.
3) Lesion scoring: On the 8th day after challenge inoculation, an autopsy was conducted for 6 broilers per cage, and the intestines were incised and opened. […]

`N#CC(c1ccc(Cl)cc1)c1c(Cl)cc(-n2ncc(=O)[nH]c2=O)cc1Cl` (stereo not shown) [Diclazuril, diclazuril, reference compound] was tested, and the “Protozoal death rate by material treatment concentration (%)” value (“Protozoal death rate … (%)” below) ([1]; 16 ppm) was 0%, the “Protozoal death rate … (%)” value ([1]; 32 ppm) was 0% and the “Protozoal death rate … (%)” value ([1]; 62 ppm) was 0%. The “Protozoal death rate … (%)” value ([1]; 125 ppm) was 0%, the “Protozoal death rate … (%)” value ([1]; 250 ppm) was 35% and the “Protozoal death rate … (%)” value ([1]; 500 ppm) was 44%.
In the case of `O=C(O)c1cc(O)c(O)c(O)c1` [Gallic acid, gallic acid, reference compound], the “Protozoal death rate … (%)” value ([1]; 16 ppm) was 0%, the “Protozoal death rate … (%)” value ([1]; 32 ppm) was 0% and the “Protozoal death rate … (%)” value ([1]; 62 ppm) was 0%. The “Protozoal death rate … (%)” value ([1]; 125 ppm) was 0%, the “Protozoal death rate … (%)” value ([1]; 250 ppm) was 26% and the “Protozoal death rate … (%)” value ([1]; 500 ppm) was 32%.
For `COc1cc(O)cc(/C=C/c2ccc(O)cc2)c1` [Pinostilbene, 3-Methoxy-4′,5-dihydroxy-trans-stilbene], the “Protozoal death rate … (%)” value ([1]; 16 ppm) was 0%, the “Protozoal death rate … (%)” value ([1]; 32 ppm) was 0% and the “Protozoal death rate … (%)” value ([1]; 62 ppm) was 0%. The “Protozoal death rate … (%)” value ([1]; 125 ppm) was 0%, the “Protozoal death rate … (%)” value ([1]; 250 ppm) was 50.5% and the “Protozoal death rate … (%)” value ([1]; 500 ppm) was 61.3%. For the same compound, the “concentration showing death rate of 50% or more against the protozoan” value [1] was ≥ 250 ppm.
For `COc1cc(/C=C/c2ccc(O)cc2)cc(OC)c1` [Pterostilbene, 3,5-Dimethoxy-4′-hydroxystilbene], the “Survival rate after challenge inoculation (%)” value (shortened to “Survival rate … (%)”) (Eimeria tenella) was 100%, the “BWG after challenge inoculation (g/d)” value (Eimeria tenella) was 389^bc g/d and the anticoccidial index (Eimeria tenella) was 151 points. For the same compound, the ACI (Eimeria tenella) was 151, the Lesion score (Eimeria tenella) was 2.8^b and the “anticoccidial efficacy compared with salinomycin” value (Eimeria tenella) was “equivalent or superior”. The Oocyst index (Eimeria tenella) was 10, the Lesion index (Eimeria tenella) was 28 and the “Daily weight gain compared to negative control group (RWG, %)” value (“Daily weight gain … (RWG, %)” for short) (Eimeria tenella) was 89%. The “Protozoal death rate … (%)” value ([1]; 16 ppm) was 33.3%, the “Protozoal death rate … (%)” value ([1]; 32 ppm) was 63.4% and the “Protozoal death rate … (%)” value ([1]; 62 ppm) was 74.2%. The “Protozoal death rate … (%)” value ([1]; 125 ppm) was 100%, the “Protozoal death rate … (%)” value ([1]; 250 ppm) was 100% and the “Protozoal death rate … (%)” value ([1]; 500 ppm) was 100%. The “concentration showing death rate of 50% or more against the protozoan” value [1] was ≥ 32 ppm.
In the case of `Oc1ccc(/C=C/c2cc(O)cc(O)c2)cc1` [Resveratrol], the “Survival rate … (%)” value (Eimeria tenella) was 100%, the “BWG after challenge inoculation (g/d)” value (Eimeria tenella) was 381^bcd g/d and the anticoccidial index (Eimeria tenella) was 149 points. The ACI (Eimeria tenella) was 149, the Lesion score (Eimeria tenella) was 2.95 and the “anticoccidial efficacy compared with salinomycin” value (Eimeria tenella) was “equivalent or superior”. The Oocyst index (Eimeria tenella) was 10, the Lesion index (Eimeria tenella) was 29 and the “Daily weight gain … (RWG, %)” value (Eimeria tenella) was 87%.
For `CC[C@@H](C(=O)[C@@H](C)[C@@H](O)[C@H](C)[C@@H]1O[C@@H]([C@@H](CC)C(=O)O)CC[C@@H]1C)[C@H]1O[C@]2(C=C[C@@H](O)[C@]3(CC[C@@](C)([C@H]4CC[C@](O)(CC)[C@H](C)O4)O3)O2)[C@H](C)C[C@@H]1C` [Salinomycin, salinomycin, reference compound], the “Survival rate … (%)” value (Eimeria tenella) was 100%, the “BWG after challenge inoculation (g/d)” value (Eimeria tenella) was 360^cd g/d and the anticoccidial index (Eimeria tenella) was 149 points. The ACI (Eimeria tenella) was 149, the Lesion score (Eimeria tenella) was 2.3^c and the Oocyst index (Eimeria tenella) was 10. The Lesion index (Eimeria tenella) was 23 and the “Daily weight gain … (RWG, %)” value (Eimeria tenella) was 82%.
